According to PubChem BioAssay (NCI):
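Cultured in 96-well plates, cells were exposed to test compound for 48 hours across five concentrations. The concentration for 50% growth inhibition is given as GI50. The concentration for full growth arrest is given as TGI.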

Legend:
Assay in all cases: inhibition of tumour cell growth, NCI panel, 48 h
[1] = test system: UO-31 renal
[2] = test system: SK-MEL-5 melanoma
[3] = test system: RXF 393 renal
[4] = test system: SN12C renal
[5] = test system: EKVX NSCLC
[6] = test system: COLO 205 colon
[7] = test system: DLD-1 colon
[8] = test system: SF-539 CNS
[9] = test system: U251 CNS
[10] = test system: OVCAR-5 ovarian
[11] = test system: SNB-19 CNS
[12] = test system: SK-OV-3 ovarian

SMILES | TGI [1] | TGI [2] | TGI [3] | TGI [4] | TGI [5] | TGI [6] | TGI [7] | TGI [8] | TGI [9] | TGI [10] | TGI [11] | TGI [12] | GI50 [3] | GI50 [4] | GI50 [6] | GI50 [7] | GI50 [8] | GI50 [9] | GI50 [11] | GI50 [12]
O=C1CSc2sc(=S)sc2S1 | > 100 µM | > 100 µM | > 100 µM | > 100 µM | > 100 µM | > 100 µM | > 100 µM | > 100 µM | > 100 µM | > 100 µM | > 100 µM | > 100 µM | – | – | – | – | – | – | – | –
CN(CCNC(=O)c1cn(C)c2c1ccc1cc(Cl)ccc12)CCNC(=O)c1cn(C)c2c1ccc1cc(Cl)ccc12 | 2.94 µM | > 26.9 µM | – | 3.37 µM | 4.04 µM | 2.57 µM | – | 9.35 µM | > 100 µM | 4.41 µM | – | – | – | – | – | – | – | – | – | –
Cc1ccc(NC(=O)CC(=O)n2nc(-c3ccccc3)c(N=Nc3ccccc3C(=O)O)c2-c2ccccc2)cc1 | > 100 µM | > 100 µM | > 100 µM | > 100 µM | > 100 µM | > 100 µM | > 100 µM | > 100 µM | – | > 100 µM | > 100 µM | > 100 µM | – | – | – | – | – | – | – | –
CC1C(O)[C@@]2(OC[C@@]34C(=O)CC5(O)[C@H](CCC6Cc7nc8c(nc7C[C@]65C)CC5CC[C@@H]6C7=C[C@H]9O[C@@]%10(O[C@@](C)(CO)C[C@@H]%10O)C(C)[C@@]9(O)[C@]7(C)[C@@H](O)CC6[C@]5(C)C8)C3=CC[C@H]4C2C)OC1(C)C (stereo partly drawn) | 0.134 µM | 0.415 µM | < 0.000355 µM | > 3.55 µM | 0.499 µM | 0.361 µM | 0.652 µM | 0.00487 µM | 0.101 µM | 0.0795 µM | 0.206 µM | 0.274 µM | – | – | – | – | – | – | – | –
COC[C@@H]1Cc2cc(OC)c3c(c2[C@H](c2ccc(OC)c(OC)c2)[C@H]1COC)OCO3 | > 100 µM | – | > 100 µM | > 100 µM | > 100 µM | > 100 µM | > 100 µM | > 100 µM | > 100 µM | > 100 µM | > 100 µM | > 100 µM | – | – | – | – | – | – | – | –
Nc1nccc2c1ncn2C1C=C(CO)C(O)C1O (stereo not drawn) | – | > 1000 µM | > 1000 µM | > 1000 µM | – | > 1000 µM | > 1000 µM | > 1000 µM | > 1000 µM | > 54.1 µM | > 1000 µM | > 1000 µM | 851 µM | 0.351 µM | 7.35 µM | 104 µM | 711 µM | 1.61 µM | > 1000 µM | > 1000 µM
O=[P+](O)c1cccs1 | > 100 µM | > 100 µM | > 100 µM | > 100 µM | > 100 µM | > 100 µM | > 100 µM | > 100 µM | > 100 µM | – | > 100 µM | > 100 µM | – | – | – | – | – | – | – | –
